Type in all cases: cell-based, mouse
Assay [1] deals with β-galactosidase in CMV-LacZ C2C12 myoblasts. As to the kind of experiment: CMV-LacZ secondary screen in C2C12 myoblasts (β-Gal stabilizing assay). The settings on record: for CMV-LACZ in Myoblasts (β-galactosidase activity relative to DMSO): CMV-LacZ C2C12 myoblasts; for CMV-LACZ in Myoblasts, value relative to DMSO: SU9516 analogs, C2C12 CMV-LacZ, N=2. In a few lines: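 First, C2C12 myoblasts were transfected with a linearized CMV-LACZ vector and clonal lines selected by FDG β-gal assay. Then cells were exposed to compounds at 0.5, 1, 5, 10, 20 and 40 μM in 96-well format, two replicates each, and β-gal measured.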

Assay [2] deals with α7 integrin (LacZ reporter in α7βgal+/− myoblasts). As to the kind of experiment: Myoblast α7+/LacZ integrin FDG assay (Burkin assay in myoblasts, 96-well). The settings on record: for Burkin Assay in Myoblasts, signal relative to DMSO: α7+/LacZ myoblasts, 96-well.
The test system of assay [3] is β-galactosidase in CMV-LacZ C2C12 myotubes. As to the kind of experiment: CMV-LacZ secondary screen in C2C12 myotubes (β-Gal stabilizing assay). The settings on record: for CMV-LACZ in Myotubes, signal relative to DMSO: C2C12 CMV-LacZ myotubes, fold relative to DMSO; for CMV-LACZ in Myotubes, value relative to DMSO: SU9516 analogs, C2C12 CMV-LacZ, N=2. In a few lines: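 Dose-response runs at 0.5–40 μM (0.5, 1, 5, 10, 20, 40 μM; N=2 per point) used a clonal C2C12 line carrying CMV-LacZ. Cells were assayed as myoblasts or as differentiated myotubes, and β-galactosidase levels were read with the FDG fluorogenic substrate.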

Assay [4] deals with α7 integrin (LacZ reporter in α7+/LacZ myotubes). Nature of the assay: Myotube α7 integrin FDG assay (Burkin assay in myotubes, 96-well). The settings on record: for Burkin Assay in Myotubes, value relative to DMSO: SU9516 analogs, 96-well, N=3-6.
The mark [5] stands for this setting: Mus musculus, Myoblast, 48 h, read-out: Burkin Assay in Myoblasts, value relative to DMSO.

Values joined by “and” are separate entries in the source; they are usually repeats but may differ in a detail not shown here. Identical values can stand only once.

Results on three compounds are retold here after patent publication US9980943B2, “Methods of treating muscular dystrophy” (BOARD OF REGENTS OF THE NEVADA SYSTEM OF HIGHER EDUCATION, …, priority 2013, dated 2018).

As to `CC1(C)Cc2c(cnn2-c2cccc(F)c2)C(NC(=O)CCc2cnccn2)C1` (stereo not drawn) [MLS001125260-01], the “CMV-LACZ in Myoblasts (β-galactosidase activity relative to DMSO)” value in assay [1] (0.5 uM) came out at 1.1581; in assay [1] (1 uM) it was 1.0584; in assay [1] (5 uM), 1.0114; in assay [1] (10 uM), 0.9131; in assay [1] (20 uM), 1.0563; in assay [1] (40 uM), 1.2270. Also, the “Burkin Assay in Myoblasts, signal relative to DMSO” value is 1.21 and 1.071 in assay [2] (0.5 uM); 1.11 and 1.021 in assay [2] (1 uM); 0.9838 and 0.9248 in assay [2] (5 uM); 0.9616 and 0.8893 in assay [2] (10 uM); 1.024 and 0.8738 in assay [2] (20 uM); 0.9057 and 0.8426 in assay [2] (40 uM). Further, the “CMV-LACZ in Myotubes, signal relative to DMSO” value is 1.0074 in assay [3] (0.5 uM); 1.0993 in assay [3] (1 uM); 0.9614 and 0.9645 in assay [3] (5 uM); 1.0994 and 1.065 in assay [3] (10 uM); 1.0000 and 1.0765 in assay [3] (20 uM); 0.9212 and 1.175 in assay [3] (40 uM). The “Burkin Assay in Myotubes, α7 integrin LacZ reporter signal relative to DMSO” value was 1.285 and 1.002 in assay [4] (0.5 uM); 1.208 and 0.8663 in assay [4] (1 uM); 0.9677 and 1.022 in assay [4] (5 uM); 1.091 and 0.9402 in assay [4] (10 uM); 0.7634 and 0.9057 in assay [4] (20 uM); 0.7451 and 0.9086 in assay [4] (40 uM).

As for `O=C1Nc2ccccc2/C1=C/c1c[nH]cn1` [MLS000327715-01], the “CMV-LACZ in Myoblasts, value relative to DMSO” value in assay [1] (0.5 uM) was 1.2294; in assay [1] (1 uM), 1.1731; in assay [1] (5 uM), 0.9664; in assay [1] (10 uM), 1.0060; in assay [1] (20 uM), 1.3181; in assay [1] (40 uM), 1.0648. In addition, the fold induction at 0.5 µM in assay [2] (setting [5]) was 1.38. In assay [2] (setting [5]), the fold induction at 1 µM was found to be 1.09. For the same compound, in assay [2] (setting [5]), the fold induction at 5 µM is 1.15. In addition, the fold induction at 10 µM in assay [2] (setting [5]) was found to be 1.03. Besides, the fold induction at 20 µM in assay [2] (setting [5]) is 0.902. Also, the fold induction at 40 µM in assay [2] (setting [5]) was 0.578. The “CMV-LACZ in Myotubes, value relative to DMSO” value in assay [3] (0.5 uM) is given as 1.1762; in assay [3] (1 uM) it was 1.0562; in assay [3] (5 uM), 1.1289; in assay [3] (10 uM), 0.9983; in assay [3] (20 uM), 1.2200; in assay [3] (40 uM), 1.4871. Moreover, the “Burkin Assay in Myotubes, value relative to DMSO” value in assay [4] (0.5 uM) is recorded as 0.8838; in assay [4] (1 uM), 1.025; in assay [4] (5 uM), 1.302; in assay [4] (10 uM), 1.115; in assay [4] (20 uM), 1.192; in assay [4] (40 uM), 1.119.

On to `CCNC(=O)C(=O)Nc1cc2c3c(c1)CCN3C(=O)CC2` [MLS001167798-01], for which the “CMV-LACZ in Myoblasts (β-galactosidase activity relative to DMSO)” value amounted to 1.0342 in assay [1] (0.5 uM); 0.7750 in assay [1] (1 uM); 1.1822 in assay [1] (5 uM); 1.1494 in assay [1] (10 uM); 1.2196 in assay [1] (20 uM); 1.1452 in assay [1] (40 uM). The “Burkin Assay in Myoblasts, signal relative to DMSO” value is 1.058 in assay [2] (0.5 uM); 1.166 in assay [2] (1 uM); 1.277 in assay [2] (5 uM); 1.064 in assay [2] (10 uM); 1.051 in assay [2] (20 uM); 1.006 in assay [2] (40 uM). For the same compound, the “CMV-LACZ in Myotubes, signal relative to DMSO” value in assay [3] (0.5 uM) amounted to 0.9143; in assay [3] (1 uM) it was 0.9295; in assay [3] (5 uM), 1.1987; in assay [3] (10 uM) it was 1.2238; in assay [3] (20 uM) it was 1.3337; in assay [3] (40 uM), 1.2800. Besides, the “Burkin Assay in Myotubes, α7 integrin LacZ reporter signal relative to DMSO” value turned out to be 1.051 in assay [4] (0.5 uM); 0.9243 in assay [4] (1 uM); 1.118 in assay [4] (5 uM); 0.9382 in assay [4] (10 uM); 0.7983 in assay [4] (20 uM); 0.7231 in assay [4] (40 uM).
